Assay results published in patent US8222487B2, “Application of ERF genes from Bupleurum kaoi” (National Tsing Hua University, priority 2009, dated 2012).

Tests used:
Psudomonas syringe = assay: Inhibition of bacteria in BkERF transformed B. kaoi cells; format: cell-based; conditions: 6 days after infection, transformed B. kaoi cells overexpressing the gene
Excerpt: (§1) The BkERF1, BkERF2.1, and BkERF2.2 genes are SEQ ID NO. 3, SEQ ID NO. 1 and SEQ ID NO. 2 respectively. The coding region of BkERFs was cloned into the multiple cloning site of the binary vector under the CaMV 35S promoter and the nopaline synthase termination sequence. The resulting vector was introduced into the Agrobacterium tumefaciens which was introduced into the cells of B. kaoi. The B. kaoi cells overexpressed BkERFs genes were observed using Western blot.
(§2) Bacteria suspension of a concentration about 10^8 cfu/ml was made from bacteria cultured 1-2 days with culture medium, and inoculated to 0.2 g BkERF transformed calli then grown in a 25° C. incubator. After six days, the calli was homogenized in 10 mM magnesium sulfate. Serial dilution of the bacteria was prepared and spread on nutrient agar plate containing 50 mg/L rifampicin. The plates were put in a 28° C. incubator for two days and then the numbers of bacteria were calculated.

Staphylococcus aureus = assay: as above; format: cell-based; conditions: 6 days after infection, transformed B. kaoi cells overexpressing the gene
Excerpt: as §1, §2

Substance | Growth of bacteria in the transformed cells (bacterial numbers) (Psudomonas syringe) | Growth of bacteria in the transformed cells (bacterial numbers) (Staphylococcus aureus)
ERF1: B. kaoi ethylene response factor gene, ORF of 633 bp encoding 210 amino acids, overexpressed via binary vector | inhibited | inhibited
ERF2.1: B. kaoi ethylene response factor gene, ORF of 693 bp encoding 230 amino acids, overexpressed via binary vector | inhibited | inhibited
ERF2.2: B. kaoi ethylene response factor gene, ORF of 702 bp encoding 233 amino acids, overexpressed via binary vector | inhibited | inhibited
